Laboratory results published in publication PMC5320730, “Synthetic curcumin derivative DK1 possessed G2/M arrest and induced apoptosis through accumulation of intracellular ROS in MCF-7 breast cancer cells” (Cancer Cell International, 2017).

Assays:
[1] = test system: PLK1, p21 and WEE-1 expression in MCF-7 cells; assay: qRT-PCR of cell cycle related genes; details: MCF-7, 25 µM, qRT-PCR, p < 0.05
MCF-7 cells [2] = assay: Fluorescent microscopy with acridine orange/propidium iodide staining, count of 200 cells; type: cell-based, human; details: MCF-7, 25 µM, 72 h, AO/PI, scoring of 200 cells
Experimental: Prior to harvest the cell, morphology of control and DK1 treated MCF-7 was observed using light microscope. In addition, harvested control and treated MCF-7 cells were resuspended in 100 μL of Phosphate buffer saline (PBS), stained with 10 μg/mL of Acridine orange (AO) and propidium iodide (PI) and viewed under fluorescent microscope (Nikon, Japan).

MCF-7 cells [3] = assay: Flow cytometry cell cycle analysis (PI); type: cell-based, human; details: MCF-7, 25 µM
Experimental: Cell cycle progression of control and DK1 treated MCF-7 was analysed using BD FACS Calibur flow cytometer (Becton–Dickinson, USA). Briefly, harvested cells were added with 250 μL of trypsin buffer with 10 min incubation, followed by 200 μL of trypsin inhibitor with RNase buffer with 10 min incubation, and finally stained with 200 μL of propidium iodide (PI) from BD Cycletest Plus kit (Becton–Dickinson, USA). All stained cells were subjected to BD FACS Calibur flow cytometer analysis using BD Cell Quest Pro software (Becton–Dickinson, USA).

MCF-10A cells = assay: MTT cell viability assay, normal MCF-10A; type: cell-based; details: Homo sapiens
Experimental: (§1) Promyelocytic leukemia HL60, hepatoblastoma HepG2, breast cancer MCF-7 and MDA-MB-231 cells were purchased from ATCC (USA) and cultured in RPMI-1640 media (Sigma, USA), supplemented with 10% fetal bovine serum (FBS) (PAA, USA). Normal epithelial MCF-10A cells (ATCC, USA) was maintain in DMEM-F12 (Sigma, USA) supplemented with hydrocortisone (0.5 μg/mL), insulin (10 μg/mL), human epidermal growth factor (hEGF) (20 ng/mL) (Sigma, USA) and 10% FBS (PAA, USA).
(§2) MTT cell viability assay was used to evaluate the effect of DK1 on viability of HL-60, HepG2, MCF-7, MDA-MB-231 and MCF-10A cells. Briefly, each type of cells (8 × 10^4cells/well) was seeded in 96-well plate in 37 °C CO2 incubator overnight. Then, DK1 was added at concentration ranging between 200 and 3.125 µM by twofold serial dilution. Untreated control was prepared simultaneously. After that, the cells were incubated for 24, 48 and 72 h at 37 °C in 5% CO2 incubator. After the incubation period, all well was added with 20 μL of MTT solution (5 mg/mL) and further incubated for 3 h. Subsequently, 170 μL of supernatant from each well was discarded, 100 μL of dimethyl sulfoxide (DMSO) was added to solubilize the purple formazan crystal and the absorbance was measured at a wavelength of 570 nm by Enzyme-linked immunosorbent assay (ELISA) plate reader (Bio-tek instruments, USA). All cell lines were assayed for three biological replicates each with triplicates. Percentage of cell viability was calculated using the following formula: Cell viability%=OD sample/OD control×100%
(§3) IC50 value (concentration of DK1 that reduce 50% of cell viability compared to control cell) was determined from the graph of cell viability (%) vs DK1 concentration. Subsequently, selective index, which indicating selectivity of DK1 against cancerous and normal breast cell lines, was calculated by: Selective indexSI=IC50of DK1on normal MCF-10A cell line/IC50on breast cancerous cell lineHL60/HepG2/MCF-7/MDA-MB-231

HL-60 cells = assay: MTT cell viability assay, HL-60; type: cell-based; details: Homo sapiens, HL-60, MTT
Experimental: as §1, §2, §3

[4] = test system: cytochrome c in MCF-7 cells; assay: Cytochrome c ELISA; type: cell-based, human; details: MCF-7, 25 µM
Experimental: The level of active caspase 9 and cytochrome c of the control and DK1 treated MCF-7 were quantified using CaspGLOW Red Active Caspase-9 staining kit (BioVision, USA) and human cytochrome c platinum ELISA (eBioscience Affymetrix, USA), respectively according to manufacturers’ protocol. Fold change of caspase 9 and cytochrome c was calculated by dividing fluorescence intensity or absorbance of DK1 treated MCF-7 with untreated control MCF-7.

MCF-7 cells [5] = assay: Flow cytometry AnnexinV-FITC/PI apoptosis analysis; type: cell-based, human; details: MCF-7, 25 µM, 72 h, AnnexinV/PI
Experimental: Apoptosis of DK1 treated MCF-7 was compared with the control cell by Flow cytometry AnnexinV-FITC/PI apoptosis assay. Briefly, harvested cells were resuspended in 100 μL of 1× binding buffer and stained with 5 μL each of AnnexinV-FITC and propidiumiodide. After 15 min of incubation, the cells were added with 400 μL of 1× binding buffer and subjected to BD FACS Calibur flow cytometer analysis using BD Cell Quest Pro software (Becton–Dickinson, USA).

MDA-MB-231 cells = assay: MTT cell viability assay, MDA-MB-231; type: cell-based, human; details: for IC50: Homo sapiens, MDA-MB-231, MTT
Experimental: as §1, §2, §3

[6] = test system: CDC2 and phospho-CDC2 (Tyr15) in MCF-7 cells; assay: Western blot analysis of CDC2 and p-CDC2 (Tyr15); type: cell-based, human; details: MCF-7, 25 µM, 48 and 72 h
Experimental: Total protein was extracted from harvested cell with Radioimmunoprecipitation assay (RIPA) buffer supplemented with phosphatase inhibitor cocktail (Roche, Canada) and the concentration was quantified by Bradford assay (Sigma, USA). Then, 100 μg of extracted protein was subjected to sodium dodecyl sulfate polyacrylamide gel electrophoresis (SDS-PAGE) (Bio-Rad, USA), transferred to nitrocellulose membrane, block with 0.5% skimmed milk overnight, washed with Tris-buffered saline tween (TBST) buffer and incubated with primary antibodies (anti-CDC2, anti-pCDC2 (Tyr15), anti-p53, and anti-β-actin at a dilution of 1:1000 (Abcam, USA) for 1 h. After that, membranes were washed, incubated with 1:5000 diluted goat anti-rabbit IgG H&L conjugated to […] (Abcam, USA) and developed under chemiluminescence condition (Super Signal West Pico, Pierce, USA) using the ChemiDoc XRS (Bio-Rad, USA). Differential level of evaluated protein in control and DK1 treated MCF-7 was calculated based on the bands intensity analyzed using the Quantity One 1D Analysis software (Bio-rad, USA).

## O=C(/C=C(\O)c1ccccc1)c1ccccc1O [DK1, (Z)-3-hydroxy-1-(2-hydroxyphenyl)-3-phenylprop-2-en-1-one]
[1]
  expression of PLK1 compared to control: downregulated
  expression of WEE-1 compared to control: enhanced
  expression of p21 compared to control: enhanced
MCF-7 cells [2]
  cells undergone apoptosis: ~ 12.5%
  cells undergone late apoptosis/necrosis: ~ 31%
MCF-7 cells [3]; 24 h (control ~18%)
  percentage of cell population in G2/M phase: ~ 25%
MCF-7 cells [3]; 48 h (control ~18%)
  percentage of cell population in G2/M phase: ~ 26%
MCF-7 cells [3]; 72 h (control ~18%)
  percentage of cell population in G2/M phase: ~ 31%
MCF-10A cells; 24 h
  IC50: > 208 µM
MCF-10A cells; 48 h
  IC50: 126 ± 3.67 µM
MCF-10A cells; 72 h
  IC50: 104 ± 5.21 µM
HL-60 cells; 24 h
  IC50: 138 ± 2.16 µM
HL-60 cells; 48 h
  IC50: 124 ± 3.27 µM
HL-60 cells; 72 h
  IC50: 73.4 ± 2.65 µM
[4]; 48 h
  promotion of cytochrome c compared to control: ~ 2.1 fold
[4]; 72 h
  promotion of cytochrome c compared to control: ~ 2.8 fold
MCF-7 cells [5]
  early apoptosis: ~ 14%
  late apoptosis: ~ 39%
MDA-MB-231 cells; 24 h
  IC50: 104 ± 5.23 µM
MDA-MB-231 cells; 48 h
  IC50: 45.8 ± 4.66 µM
MDA-MB-231 cells; 72 h
  IC50: 37.5 ± 4.82 µM
MDA-MB-231 cells; IC50 MCF-10A / IC50 MDA-MB-231, 24 h
  Selective index of MCF-10A/MDA: >2.00
MDA-MB-231 cells; IC50 MCF-10A / IC50 MDA-MB-231, 48 h
  Selective index of MCF-10A/MDA: 2.72
MDA-MB-231 cells; IC50 MCF-10A / IC50 MDA-MB-231, 72 h
  Selective index of MCF-10A/MDA: 2.77
MDA-MB-231 cells; MDA-MB-231, overall statement
  SI values: higher than 2
[6]
  CDC2 protein level: reduction
  phospho-CDC2 (Tyr15) protein level: accumulation
